Legend:
PDH phosphatase = PDH phosphatase activation; assay type: biochemical; details: 100 μM
Description: (§1) Methods for obtaining A-type and P-type mediators are set out in Caro et al, 1997, and in WO98/11116 and WO98/11117. Protocols for determining characteristic IPG biological activities such as PDH activation, PKA inhibition, acetylCoA activation, fructose-1,6-bis-phosphatase activity and lipogenesis are well known in the art, e.g. as described in Caro et al^[14].
(§2) The compounds of the invention can be tested for one or more the characteristic IPG-P and/or IPG-A activities mentioned above to determine whether they will be suitable for use a IPG mimetics or antagonists. Preferred assays measure the effect of the compounds on PDH phosphatase, PKA or lipogenesis. Protocols for these assays are provided in Caro et al^[14].

lipogenesis [1] = test: basal lipogenesis stimulation; assay type: cell-based; details: FIG. 2
Description: as §1, §2

lipogenesis [2] = test: glucose stimulated lipogenesis stimulation; assay type: cell-based; details: FIG. 3
Description: as §1, §2

PKA = PKA inhibition; assay type: biochemical
Description: as §1, §2

| SMILES | PDH activation (PDH phosphatase) [%] | effect on basal lipogenesis (lipogenesis [1]) | effect on glucose stimulated lipogenesis (lipogenesis [2]) | PKA inhibition (PKA; 0.1 μM) [%] | PKA inhibition (PKA; 10 μM) [%] |
| --- | --- | --- | --- | --- | --- |
| NC1C(OC2C(O)C(O)C(O)C(O)C2OP(=O)(O)O)OC(CO)C(O)C1O [RGL1115, 1′-D-6-O-(2′-amino-2′-deoxy-α-D-glucanopyranosyl)-5-O-phosphate-myo-inositol] | 18 | – | – | – | – |
| NC1C(OC2C(O)C(O)C(O)C(O)C2O)OC(CO)C(O)C1OP(=O)(O)O [RGL1029, O-(2′-amino-2′-deoxy-3′-phosphate-D-glucopyranosyl)-α(1,6)-D-myo-inositol] | 361 | stimulate lipogenesis | stimulate lipogenesis | 59 | 33 |
| N[C@H]1[C@@H](O[C@H]2[C@H](O)[C@H](O)[C@H](O)[C@@H](O)[C@@H]2O)O[C@H](COP(=O)(O)O)[C@@H](O)[C@@H]1O [RGL1023, O-(2′-amino-2′-deoxy-6′-phosphate-D-glucopyranosyl)-α(1,6)-D-myo-inositol] | 14 | stimulate lipogenesis | stimulate lipogenesis | – | – |
| NC1C(OC2C(O)C(O)C(O)C(O)C2O)OC(CO)C(OP(=O)(O)O)C1O [RGL1027, O-(2′-amino-2′-deoxy-4′-phosphate-D-glucopyranosyl)-α(1,6)-D-myo-inositol] | 132 | inhibits lipogenesis | inhibits lipogenesis | 18 | 10 |

From patent US6759390B2, “Compounds and their uses” (priority 2000, dated 2004)
